Measured values taken from PubChem BioAssay AID256 (DTP/NCI, 2004).
Values joined by “and” are separate entries in the source; they are usually repeats but may differ in a detail not shown here. Equal entries are not always repeated. Inconclusive results and toxic doses are left out.

System: CD2F1 mice, L1210 leukemia ip, survival T/C
Experiment: NCI In Vivo Anticancer Drug Screen. Data for tumor model L1210 Leukemia (intraperitoneal) in CD2F1 (CDF1) mice
Settings: higher = longer survival
Summary of the method: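 Implant tumor; dose compound or vehicle; measure endpoint in both groups; report treated divided by control.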

[1] = endpoint: mean survival time, dose: 12.5 mg/kg/injection, schedule: Q01DX009 (ip), vehicle: saline
[2] = endpoint: mean survival time, dose: 25.0 mg/kg/injection, schedule: Q01DX009 (ip), vehicle: saline
[3] = endpoint: mean survival time, dose: 50.0 mg/kg/injection, schedule: Q01DX009 (ip), vehicle: saline

## O=N[O-].[Co].[NH2-].[NH2-].[NH2-].[NH2-].[NH2-]
[1]
  T/C: 103 % of control
endpoint: mean survival time, dose: 25.0 mg/kg/injection, schedule: Q01DX003 (ip), vehicle: saline
  T/C: 93 % of control
[2]
  T/C: 103 % of control
endpoint: mean survival time, dose: 50.0 mg/kg/injection, schedule: Q01DX003 (ip), vehicle: saline
  T/C: 100 % of control
[3]
  T/C: 105 % of control

## CCCCCCCCCCCCCCCC(=O)NCC[N+](C)(CC)CC
endpoint: mean survival time, dose: 75.0 mg/kg/injection, schedule: Q01DX001 (ip), vehicle: saline
  T/C: 109 % of control

## Nc1nc(F)nc2c1ncn2C1OC(COP(=O)(O)O)C(O)C1O (configuration not stated)
endpoint: mean survival time, dose: 6.25 mg/kg/injection, schedule: Q01DX009 (ip), vehicle: saline
  T/C: 98 % of control
[1]
  T/C: 104 % of control
[2]
  T/C: 118 % of control
[3]
  T/C: 114 % of control
endpoint: mean survival time, dose: 60.0 mg/kg/injection, schedule: Q01DX009 (ip), vehicle: saline
  T/C: 124 % of control
endpoint: mean survival time, dose: 88.98 mg/kg/injection, schedule: Q01DX009 (ip), vehicle: saline with Tween-80
  T/C: 174 % of control
endpoint: mean survival time, dose: 90.0 mg/kg/injection, schedule: Q01DX009 (ip), vehicle: saline
  T/C: 182 % of control
endpoint: mean survival time, dose: 100.0 mg/kg/injection, schedule: Q01DX009 (ip), vehicle: saline
  T/C: 171 % of control
endpoint: mean survival time, dose: 133.0 mg/kg/injection, schedule: Q01DX009 (ip), vehicle: saline
  T/C: 183 % of control
endpoint: mean survival time, dose: 133.4 mg/kg/injection, schedule: Q01DX009 (ip), vehicle: saline with Tween-80
  T/C: 244 % of control
endpoint: mean survival time, dose: 133.4 mg/kg/injection, schedule: Q01DX009 (ip), vehicle: saline
  T/C: 180 % of control
endpoint: mean survival time, dose: 135.0 mg/kg/injection, schedule: Q01DX009 (ip), vehicle: saline
  T/C: 288 % of control and 156 % of control
endpoint: mean survival time, dose: 200.0 mg/kg/injection, schedule: Q01DX009 (ip), vehicle: saline with Tween-80
  T/C: 100 % of control
endpoint: mean survival time, dose: 200.0 mg/kg/injection, schedule: Q01DX009 (ip), vehicle: saline
  T/C: 231 % of control [middle of 4 runs]
endpoint: mean survival time, dose: 219.0 mg/kg/injection, schedule: Q01DX009 (ip), vehicle: saline
  T/C: 362 % of control
endpoint: mean survival time, dose: 292.0 mg/kg/injection, schedule: Q01DX009 (ip), vehicle: saline
  T/C: 98 % of control
endpoint: median survival time, dose: 32.0 mg/kg/injection, schedule: Q01DX009 (ip), vehicle: saline
  T/C: 114 % of control and 112 % of control
endpoint: median survival time, dose: 40.0 mg/kg/injection, schedule: Q03HX024 (ip), vehicle: sodium bicarbonate
  T/C: 167 % of control
endpoint: median survival time, dose: 47.0 mg/kg/injection, schedule: Q01DX009 (ip), vehicle: saline
  T/C: 114 % of control and 111 % of control
endpoint: median survival time, dose: 56.0 mg/kg/injection, schedule: Q03HX024 (ip), vehicle: sodium bicarbonate
  T/C: 193 % of control
endpoint: median survival time, dose: 85.0 mg/kg/injection, schedule: Q03HX024 (ip), vehicle: sodium bicarbonate
  T/C: 168 % of control
endpoint: median survival time, dose: 90.0 mg/kg/injection, schedule: Q01DX009 (ip), vehicle: saline
  T/C: 169 % of control and 185 % of control
endpoint: median survival time, dose: 98.8 mg/kg/injection, schedule: Q01DX009 (ip), vehicle: saline
  T/C: 178 % of control
endpoint: median survival time, dose: 100.0 mg/kg/injection, schedule: Q01DX001 (oral), vehicle: sodium bicarbonate
  T/C: 101 % of control
endpoint: median survival time, dose: 100.0 mg/kg/injection, schedule: Q01DX005 (oral), vehicle: sodium bicarbonate
  T/C: 111 % of control
endpoint: median survival time, dose: 105.0 mg/kg/injection, schedule: Q01DX009 (ip), vehicle: saline
  T/C: 172 % of control
endpoint: median survival time, dose: 110.0 mg/kg/injection, schedule: Q03HX008 (ip), vehicle: sodium bicarbonate
  T/C: 163 % of control
endpoint: median survival time, dose: 111.0 mg/kg/injection, schedule: Q01DX009 (ip), vehicle: saline
  T/C: 159 % of control
endpoint: median survival time, dose: 118.0 mg/kg/injection, schedule: Q01DX005 (ip), vehicle: sodium bicarbonate
  T/C: 175 % of control
endpoint: median survival time, dose: 125.0 mg/kg/injection, schedule: Q03HX024 (ip), vehicle: sodium bicarbonate
  T/C: 625 % of control
endpoint: median survival time, dose: 134.0 mg/kg/injection, schedule: Q01DX009 (ip), vehicle: saline
  T/C: 196 % of control and 202 % of control
endpoint: median survival time, dose: 148.0 mg/kg/injection, schedule: Q01DX009 (ip), vehicle: saline
  T/C: 235 % of control
endpoint: median survival time, dose: 157.0 mg/kg/injection, schedule: Q01DX009 (ip), vehicle: saline
  T/C: 182 % of control and 283 % of control
endpoint: median survival time, dose: 167.0 mg/kg/injection, schedule: Q01DX009 (ip), vehicle: saline
  T/C: 207 % of control
endpoint: median survival time, dose: 170.0 mg/kg/injection, schedule: Q03HX008 (ip), vehicle: sodium bicarbonate
  T/C: 190 % of control
endpoint: median survival time, dose: 175.0 mg/kg/injection, schedule: Q01DX009 (ip), vehicle: saline
  T/C: 207 % of control
endpoint: median survival time, dose: 177.0 mg/kg/injection, schedule: Q01DX005 (ip), vehicle: sodium bicarbonate
  T/C: 216 % of control
endpoint: median survival time, dose: 177.0 mg/kg/injection, schedule: Q01DX005 (iv), vehicle: sodium bicarbonate
  T/C: 171 % of control
endpoint: median survival time, dose: 200.0 mg/kg/injection, schedule: Q01DX001 (oral), vehicle: sodium bicarbonate
  T/C: 97 % of control
endpoint: median survival time, dose: 200.0 mg/kg/injection, schedule: Q01DX009 (ip), vehicle: saline
  T/C: 219 % of control and 198 % of control
endpoint: median survival time, dose: 200.0 mg/kg/injection, schedule: Q04DX003 (ip), vehicle: sodium bicarbonate
  T/C: 152 % of control
endpoint: median survival time, dose: 222.0 mg/kg/injection, schedule: Q01DX009 (ip), vehicle: saline
  T/C: 297 % of control
endpoint: median survival time, dose: 225.0 mg/kg/injection, schedule: Q01DX009 (ip), vehicle: saline
  T/C: 304 % of control
endpoint: median survival time, dose: 234.0 mg/kg/injection, schedule: Q01DX009 (ip), vehicle: saline
  T/C: 296 % of control
endpoint: median survival time, dose: 250.0 mg/kg/injection, schedule: Q01DX009 (ip), vehicle: saline
  T/C: 197 % of control and 284 % of control
endpoint: median survival time, dose: 250.0 mg/kg/injection, schedule: Q03HX008 (ip), vehicle: sodium bicarbonate
  T/C: 198 % of control
endpoint: median survival time, dose: 266.0 mg/kg/injection, schedule: Q01DX001 (ip), vehicle: sodium bicarbonate
  T/C: 115 % of control
endpoint: median survival time, dose: 266.0 mg/kg/injection, schedule: Q01DX005 (ip), vehicle: sodium bicarbonate
  T/C: 222 % of control
endpoint: median survival time, dose: 266.0 mg/kg/injection, schedule: Q01DX005 (iv), vehicle: sodium bicarbonate
  T/C: 195 % of control
endpoint: median survival time, dose: 300.0 mg/kg/injection, schedule: Q04DX003 (ip), vehicle: sodium bicarbonate
  T/C: 166 % of control
endpoint: median survival time, dose: 375.0 mg/kg/injection, schedule: Q01DX009 (ip), vehicle: saline
  T/C: 151 % of control
endpoint: median survival time, dose: 400.0 mg/kg/injection, schedule: Q01DX001 (iv), vehicle: sodium bicarbonate
  T/C: 120 % of control
endpoint: median survival time, dose: 400.0 mg/kg/injection, schedule: Q01DX001 (oral), vehicle: sodium bicarbonate
  T/C: 100 % of control
endpoint: median survival time, dose: 400.0 mg/kg/injection, schedule: Q01DX005 (iv), vehicle: sodium bicarbonate
  T/C: 91 % of control
endpoint: median survival time, dose: 450.0 mg/kg/injection, schedule: Q04DX003 (ip), vehicle: sodium bicarbonate
  T/C: 212 % of control
endpoint: median survival time, dose: 500.0 mg/kg/injection, schedule: Q01DX009 (ip), vehicle: saline
  T/C: 94 % of control
endpoint: median survival time, dose: 670.0 mg/kg/injection, schedule: Q04DX003 (ip), vehicle: sodium bicarbonate
  T/C: 222 % of control
endpoint: median survival time, dose: 800.0 mg/kg/injection, schedule: Q01DX001 (oral), vehicle: sodium bicarbonate
  T/C: 103 % of control
endpoint: median survival time, dose: 800.0 mg/kg/injection, schedule: Q01DX005 (oral), vehicle: sodium bicarbonate
  T/C: 150 % of control
endpoint: median survival time, dose: 1600.0 mg/kg/injection, schedule: Q01DX001 (oral), vehicle: sodium bicarbonate
  T/C: 113 % of control
endpoint: median survival time, dose: 1600.0 mg/kg/injection, schedule: Q01DX005 (oral), vehicle: sodium bicarbonate
  T/C: 175 % of control
